# Laboratory results reported in US20120142645A1, “NEUROACTIVE STEROID COMPOSITIONS AND METHODS OF USE FOR LOWERING CHOLESTEROL” (priority 2009, published 2012).
# Test system: patients with schizophrenia or schizoaffective disorder
# Assay: MATRICS/MCCB cognitive battery; same 8-week adjunctive pregnenolone trial
# Type: in vivo, human
# Details: for MATRICS/MCCB Composite score: head prints Raw Scores; for MATRICS/MCCB Composite score / MATRICS/MCCB BACS, symbol coding subtest raw score / MATRICS/MCCB Brief Visuospatial Memory Test-Rev. raw score / MATRICS/MCCB Category fluency test, animal naming raw score / MATRICS/MCCB Continuous Performance Test (CPT), Identical Pairs version-Average d′ raw score / MATRICS/MCCB Hopkins Verbal Learning Test raw score / MATRICS/MCCB Letter-Number Span test raw score / MATRICS/MCCB Mayer-Salovey-Caruso Emotional Intelligence Test, managing emotions branch raw score / MATRICS/MCCB Neuropsychological Assessment Battery, mazes subtest raw score / MATRICS/MCCB Trail Making Test, Part A raw score / MATRICS/MCCB Wechsler Memory Scale, 3rd ed., spatial span subtest raw score: mean, n = 9; for MATRICS/MCCB Composite, difference PG vs placebo in T-score change: column head prints Placebo
# Experimental: Study Design and Subjects. Disclosed herein is a placebo-controlled, double-blind, parallel group, randomized trial of adjunctive pregnenolone for the treatment of cognitive and negative symptoms in patients with schizophrenia or schizoaffective disorder. […] Patients received a total of 6 study visits, which took place every two weeks. […] The trial was conducted at a single site, the Durham Veterans Affairs Medical Center in Durham, N.C. The protocol was approved by the local institutional review board and conducted under FDA Investigational New Drug (IND) #71,768. The ClinicalTrials.gov number for this study is NCT00560937.
# Cognitive symptoms were assessed by the Brief Assessment of Cognition in Schizophrenia (BAGS; Keefe et al., 2004; Keefe et al., 2008), and the MATRICS Consensus Cognitive Battery (Nuechterlein & Green, 2006; Nuechterlein et al., 2008). It is believed that no clinical trial to date has reported both of these cognitive assessments within the same study. The BAGS and MATRICS batteries were administered two weeks following the screening visit (following the completion of the two-week placebo lead-in phase at Visit 2), and at two 4-week intervals thereafter (at midpoint following randomization at Visit 4 and at the final visit (Visit 6).
# The BAGS cognitive battery utilizes the following assessments in the respective targeted domains (Keefe et al., 2004; Keefe et al., 2008): list learning (verbal memory), digit sequencing task (working memory), token motor task (motor speed), verbal fluency (processing speed), symbol coding (attention and processing speed), and the Tower of London test (executive functions/reasoning and problem solving). The MATRICS cognitive battery utilizes the following assessments: Trail Making Test, Part A and the symbol coding subtest of the BAGS (both assess speed of processing), the Hopkins Verbal Learning Test-Revised, immediate recall (three learning trials only) [verbal learning], the Wechsler Memory Scale, 3rd ed., spatial span subtest (working memory, nonverbal), the Letter-Number Span test (working memory, verbal), the Neuropsychological Assessment Battery, mazes subtest (reasoning and problem solving), the Brief Visuospatial Memory Test-Revised (visual learning), the Category Fluency Test (animal naming) [speed of processing], the Mayer-Salovey-Caruso Emotional Intelligence Test, managing emotions branch (social cognition), and the Continuous Performance Test, Identical Pairs version (attention/vigilance) Of note, the symbol coding subtest of the BAGS was administered only once per visit at Visits 2, 4, and 6, although it is a component of both the BAGS and MATRICS cognitive batteries, in order to avoid potentially confounding practice effects.
# [1] = Week 0 to Week 8, listed as pregnenolone
structure (smiles),measurement,setting,value
"CC(=O)[C@H]1CC[C@H]2[C@@H]3CC=C4C[C@@H](O)CC[C@]4(C)[C@H]3CC[C@]12C [PG, pregnenolone]",MATRICS/MCCB Composite score,Week 0 (baseline),29.00
same,"MATRICS/MCCB BACS, symbol coding subtest raw score",Week 0 (baseline),36.89
same,MATRICS/MCCB Brief Visuospatial Memory Test-Rev. raw score,Week 0 (baseline),20.22
same,"MATRICS/MCCB Category fluency test, animal naming raw score",Week 0 (baseline),18.33
same,"MATRICS/MCCB Continuous Performance Test (CPT), Identical Pairs version-Average d′ raw score",Week 0 (baseline),1.42
same,MATRICS/MCCB Hopkins Verbal Learning Test raw score,Week 0 (baseline),18.56
same,MATRICS/MCCB Letter-Number Span test raw score,Week 0 (baseline),11.44
same,"MATRICS/MCCB Mayer-Salovey-Caruso Emotional Intelligence Test, managing emotions branch raw score",Week 0 (baseline),86.89
same,"MATRICS/MCCB Neuropsychological Assessment Battery, mazes subtest raw score",Week 0 (baseline),13.56
same,"MATRICS/MCCB Trail Making Test, Part A raw score",Week 0 (baseline),42.11
same,"MATRICS/MCCB Wechsler Memory Scale, 3rd ed., spatial span subtest raw score",Week 0 (baseline),13.11
same,"MATRICS/MCCB Attention/vigilance domain, change in T-score",Week 0 to Week 8,7.56
same,"MATRICS/MCCB Attention/vigilance domain, difference PG vs placebo in T-score change",Week 0 to Week 8,6.89
same,"MATRICS/MCCB Composite, change in T-score",Week 0 to Week 8,7.00
same,"MATRICS/MCCB Reasoning and Problem Solving domain, change in T-score",Week 0 to Week 8,6.22
same,"MATRICS/MCCB Reasoning and Problem Solving domain, difference PG vs placebo in T-score change",Week 0 to Week 8,0.00
same,"MATRICS/MCCB Social cognition domain, change in T-score",Week 0 to Week 8,−0.89
same,"MATRICS/MCCB Social cognition domain, difference PG vs placebo in T-score change",Week 0 to Week 8,−9.22
same,"MATRICS/MCCB Speed of Processing domain, change in T-score",Week 0 to Week 8,5.44
same,"MATRICS/MCCB Speed of Processing domain, difference PG vs placebo in T-score change",Week 0 to Week 8,0.78
same,"MATRICS/MCCB Verbal learning domain, change in T-score",Week 0 to Week 8,3.44
same,"MATRICS/MCCB Verbal learning domain, difference PG vs placebo in T-score change",Week 0 to Week 8,2.67
same,"MATRICS/MCCB Visual learning domain, change in T-score",Week 0 to Week 8,3.78
same,"MATRICS/MCCB Visual learning domain, difference PG vs placebo in T-score change",Week 0 to Week 8,−3.78
same,"MATRICS/MCCB Working memory domain, change in T-score",Week 0 to Week 8,5.11
same,"MATRICS/MCCB Working memory domain, difference PG vs placebo in T-score change",Week 0 to Week 8,4.00
same,"MATRICS/MCCB Composite, difference PG vs placebo in T-score change",Week 0 to Week 8,0.00
same,"MATRICS/MCCB Composite, difference PG vs placebo in T-score change",[1],no difference
same,"MATRICS/MCCB Composite, change in T-score",[1],7.00±8.87
same,MATRICS/MCCB Composite score,Week 4,33.78
same,"MATRICS/MCCB BACS, symbol coding subtest raw score",Week 4,44.78
same,MATRICS/MCCB Brief Visuospatial Memory Test-Rev. raw score,Week 4,21.33
same,"MATRICS/MCCB Category fluency test, animal naming raw score",Week 4,18.44
same,"MATRICS/MCCB Continuous Performance Test (CPT), Identical Pairs version-Average d′ raw score",Week 4,1.37
same,MATRICS/MCCB Hopkins Verbal Learning Test raw score,Week 4,20.89
same,MATRICS/MCCB Letter-Number Span test raw score,Week 4,12.67
same,"MATRICS/MCCB Mayer-Salovey-Caruso Emotional Intelligence Test, managing emotions branch raw score",Week 4,90.60
same,"MATRICS/MCCB Neuropsychological Assessment Battery, mazes subtest raw score",Week 4,15.67
same,"MATRICS/MCCB Trail Making Test, Part A raw score",Week 4,38.33
same,"MATRICS/MCCB Wechsler Memory Scale, 3rd ed., spatial span subtest raw score",Week 4,14.33
same,MATRICS/MCCB Composite score,Week 8,36.00
same,"MATRICS/MCCB BACS, symbol coding subtest raw score",Week 8,38.67
same,MATRICS/MCCB Brief Visuospatial Memory Test-Rev. raw score,Week 8,22.33
same,"MATRICS/MCCB Category fluency test, animal naming raw score",Week 8,20.44
same,"MATRICS/MCCB Continuous Performance Test (CPT), Identical Pairs version-Average d′ raw score",Week 8,1.91
same,MATRICS/MCCB Hopkins Verbal Learning Test raw score,Week 8,21.00
same,MATRICS/MCCB Letter-Number Span test raw score,Week 8,13.11
same,"MATRICS/MCCB Mayer-Salovey-Caruso Emotional Intelligence Test, managing emotions branch raw score",Week 8,86.10
same,"MATRICS/MCCB Neuropsychological Assessment Battery, mazes subtest raw score",Week 8,17.33
same,"MATRICS/MCCB Trail Making Test, Part A raw score",Week 8,34.33/
same,"MATRICS/MCCB Wechsler Memory Scale, 3rd ed., spatial span subtest raw score",Week 8,14.22
